pIC50: −log10 of the molar value.
Tests used:
leukemia = test: In vivo study of alkaline emodin preparation in leukemia-injected C3H-HEJ mice
Experimental: In vivo: The mouse strain C3H-HEJ (8-10 weeks old) were used for in vivo studies. Emodin was prepared in an alkaline preparation at 10 mg/ml, and was administered to the animals via tail vein injections. One cohort of animals received a single dose of emodin equal to 43 mg/kg per animal. Two other cohorts received either two doses of drug, administered on consecutive days, or there doses of drug, administered on consecutive days. The total concentration of drug administered were 86 mg/kg and 129 mg/kg, respectively. Animals were followed until death, euthanized upon detection of illness, or euthanized at 100 days post leukemia injection.

[1] = test system: tetracycline regulatable 32D-P210 cell line; test: MTT assay of cell growth, 3 day exposure to emodin; format: cell-based; details: emodin solubilized in DMSO, MTT assay at 72 hours, read-out: IC 50, inhibition of cellular growth
Experimental: In Vitro: A tetracycline regulatable 32D-P210 cell line was cultured in RPMI 1640 with 10% FCS and 10% Wehi supernatant and cultured at 37° C. Emodin was solubilized in DMSO at a concentration of 0.4 M for in vitro assays. A concentration of 3×10^4 cells/ml were used in a 24 well plate for a 3 day exposure to emodin. Emodin was assayed at 60 μM, 30 μM, and 10 μM concentrations. At 72 hours, a MTT assay was performed to provide a colorometric analysis of cell growth.

Cc1cc(O)c2c(c1)C(=O)c1cc(O)cc(O)c1C2=O [emodin, 3-methyl-1,6, 8 trihydroxyanthra-quinone]
tolerability of the preparation by the animal (leukemia; alkaline preparation at pH 10, tail vein injection, some bruising of the tail noted): moderately well tolerated | lifespan of animals injected with leukemia (leukemia; alkaline preparation, tail vein injections, 43, 86 or 129 mg/kg total, untreated 25 days, animals sacrificed at 100 days): 100 days | pIC50 [1]: ~5.00

Reference: patent publication US20050008664A1, “Compositions and methods related to lipid:emodin formulations” (Board of Regents, The University of Texas System, priority 2002, published 2005)
